Assays:
Assay in all cases: relative viability (nuclei count vs DMSO), 5 days (fraction); higher = more cells survive
BAY61-3606 + Lapatinib = compound: COC1=C(C=C(C=C1)C2=CC3=NC=CN3C(=N2)NC4=C(C=CC=N4)C(=O)N)OC [BAY61-3606] + CS(=O)(=O)CCNCc1ccc(-c2ccc3ncnc(Nc4ccc(OCc5cccc(F)c5)c(Cl)c4)c3c2)o1 [Lapatinib] (partner 2 µM)
Outline: (§1)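 Nuclei were stained with Hoechst during a one-step fixation (final 0.05% Triton X-100, 1% formaldehyde, 1 ug/ml Hoechst) carried out 5 days after dosing, then counted on 4× images. The cells, lung cancer lines in 1536-well plates, had been dosed by pin tool the day after seeding with one drug alone or a fixed anchor-drug dose plus five library-drug doses (not always all listed) in √10 steps. Relative viability is the nuclei count in treated wells divided by that in vehicle wells, and each value is the median of duplicate plates.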

Doxorubicin + Tozasertib = compound: COc1cccc2c1C(=O)c1c(O)c3c(c(O)c1C2=O)C[C@@](O)(C(=O)CO)C[C@@H]3O[C@H]1C[C@H](N)[C@H](O)[C@H](C)O1 [Doxorubicin] + Cc1cc(Nc2cc(N3CCN(C)CC3)nc(Sc3ccc(NC(=O)C4CC4)cc3)n2)n[nH]1 [Tozasertib] (partner 0.1 µM)
Outline: as §1

Doxorubicin + Alpelisib = compound: COc1cccc2c1C(=O)c1c(O)c3c(c(O)c1C2=O)C[C@@](O)(C(=O)CO)C[C@@H]3O[C@H]1C[C@H](N)[C@H](O)[C@H](C)O1 [Doxorubicin] + Cc1nc(NC(=O)N2CCC[C@H]2C(N)=O)sc1-c1ccnc(C(C)(C)C(F)(F)F)c1 [Alpelisib] (partner 2 µM)
Outline: as §1

Doxorubicin + Olaparib = compound: COc1cccc2c1C(=O)c1c(O)c3c(c(O)c1C2=O)C[C@@](O)(C(=O)CO)C[C@@H]3O[C@H]1C[C@H](N)[C@H](O)[C@H](C)O1 [Doxorubicin] + O=C(c1cc(Cc2n[nH]c(=O)c3ccccc23)ccc1F)N1CCN(C(=O)C2CC2)CC1 [Olaparib] (partner 8 µM)
Outline: as §1

Cell Line | relative viability (BAY61-3606 + Lapatinib; first compound 0.02 µM) | relative viability (BAY61-3606 + Lapatinib; first compound 0.06325 µM) | relative viability (BAY61-3606 + Lapatinib; first compound 0.2 µM) | relative viability (BAY61-3606 + Lapatinib; first compound 0.6325 µM) | relative viability (BAY61-3606 + Lapatinib; first compound 2 µM) | relative viability (Doxorubicin + Tozasertib; first compound 0.001 µM) | relative viability (Doxorubicin + Tozasertib; first compound 0.003162 µM) | relative viability (Doxorubicin + Tozasertib; first compound 0.01 µM) | relative viability (Doxorubicin + Tozasertib; first compound 0.03162 µM) | relative viability (Doxorubicin + Tozasertib; first compound 0.1 µM) | relative viability (Doxorubicin + Alpelisib; first compound 0.001 µM) | relative viability (Doxorubicin + Alpelisib; first compound 0.003162 µM) | relative viability (Doxorubicin + Alpelisib; first compound 0.01 µM) | relative viability (Doxorubicin + Alpelisib; first compound 0.03162 µM) | relative viability (Doxorubicin + Alpelisib; first compound 0.1 µM) | relative viability (Doxorubicin + Olaparib; first compound 0.001 µM) | relative viability (Doxorubicin + Olaparib; first compound 0.003162 µM) | relative viability (Doxorubicin + Olaparib; first compound 0.01 µM) | relative viability (Doxorubicin + Olaparib; first compound 0.03162 µM) | relative viability (Doxorubicin + Olaparib; first compound 0.1 µM)
NCI-H2126 | 0.83 | 0.724 | 0.745 | 0.794 | 0.745 | 0.902 | 0.752 | 0.774 | 0.229 | 0.251 | 0.743 | 0.775 | 0.755 | 0.711 | 0.796 | 0.908 | 0.962 | 0.916 | 0.941 | 0.907
NCI-H2170 | 0.236 | 0.272 | 0.257 | 0.262 | 0.279 | 0.741 | 0.711 | 0.651 | 0.581 | 0.701 | 0.896 | 0.966 | 0.727 | 0.682 | 0.877 | 0.617 | 0.735 | 0.633 | 0.602 | 0.704
NCI-H2228 | 1.34 | 1.01 | 1.27 | 1 | 0.894 | 0.276 | 0.269 | 0.21 | 0.125 | 0.107 | 0.724 | 0.822 | 0.647 | 0.393 | 0.198 | 0.579 | 0.717 | 0.682 | 0.249 | 0.179
NCI-H2347 | 1.05 | 0.951 | 0.924 | 0.945 | 0.941 | 0.62 | 0.551 | 0.736 | 0.53 | 0.636 | 0.985 | 0.935 | 0.997 | 0.899 | 1.02 | 0.6 | 0.562 | 0.544 | 0.516 | 0.55
NCI-H2405 | 1.26 | 0.886 | 1.05 | 1.14 | 1.07 | 0.847 | 0.759 | 0.74 | 0.693 | 0.546 |  | 0.728 | 0.82 | 0.663 | 0.406 | 0.864 | 0.847 | 0.788 | 0.465 | 0.421
NCI-H3122 | 1.03 | 0.934 | 0.974 | 1.07 | 0.957 | 0.339 | 0.375 | 0.335 | 0.169 | 0.141 | 0.835 | 0.776 | 0.815 | 0.782 | 0.768 | 0.535 | 0.616 | 0.58 | 0.62 | 0.634

— the supplement of paper PMC10307832
